# Test results: PMC12735872, “Development of ^18F/^11C-Labeled Pyrrolo-Pyridine/Pyrimidine LRRK2 Selective PET Radioligands” (Pharmaceuticals, 2025)
# Read-outs that look alike come from different tables or passages of the source.
# Columns and labels:
# [1] = Plasma protein binding by ultrafiltration; assay type: in vitro ADME, non-human primate (NHP); details: cynomolgus monkey, pH 7.4, NHP plasma, baseline
# Method: The plasma protein binding of all three radioligands was determined in duplicate at the baseline condition according to a previously published method. For each blood plasma sample, 500 μL of non-human primate (NHP) blood plasma was used with 50 μL PBS (pH 7.4 containing KCl 0.2 mg, KH2PO4 0.2 mg, Na2HPO4 1.42 mg, and NaCl 8 mg per mL). The mixture included around 20 MBq of the corresponding radioligand in PBS. Samples underwent incubation at room temperature for 10 min. A small aliquot (20 µL) was taken from each mixture, and radioactivity measurements were performed using a well counter. From each mixture, 200 µL was placed into ultrafiltration tubes (Millipore Centrifree YM-30) and centrifuged at 3000 rpm for 15 minutes. The remaining filtrates were analyzed and aliquots (20 µL) were counted in the well counter described earlier. Protein-bound fractions were calculated as follows:(1) C⥂pla (filtrate) /Cpla (total) ÷CPBS (filtrate) /CPBS (total) ×100(%)
# Cpla (total) represents the radioactivity concentration of incubation mixture in plasma and CPBS (total) represents the radioactivity concentration of incubation mixture in PBS. Cpla (filtrate) and CPBS (filtrate) are the radioactivity concentrations from filtrate samples.
# [2] = Radiometabolite analysis in monkey plasma (gradient HPLC); assay type: in vivo, cynomolgus monkey; details: baseline PET
# Method: The technique published earlier was utilized for the analysis of radiometabolites in NHP blood plasma. During the entire PET measurement, the percentage of the injected radioligand and its corresponding radioactive metabolites and radioactivity was measured with a reverse-phase HPLC system with UV absorbance detector (λ = 254 nm) and a radioactive detector. […] The blood samples were centrifuged at 4000 rpm for 2 min to separate plasma. From the centrifuged plasma, the resulting plasma was withdrawn and spiked with 1.4 times its volume of acetonitrile before being spun at 6000 rpm for 4 min. The supernatant, collected after the spun at 6000 rpm, was diluted with 3 mL of water, which was then injected into the HPLC system. The HPLC system was constructed with an Agilent 1200 series binary pump (Agilent, Santa Clara, CA, USA), a Rheodyne 7725i (Thermo Scientific, Waltham, MA, USA) manual injection valve, a 5.0 mL loop, and an Oyokoken S-2493Z radiation detector (Oyokoken, Tokyo, Japan) fitted with 50 mm lead shielding, which houses the detector. Chromatographic separation of the radiometabolites from the unchanged radioligand was performed via gradient elution on a semi-preparative reverse-phase ACE 5 µm C18 HL column (250 × 10 mm) using a mobile phase of acetonitrile (A) and ammonium formate 0.1 M (B). A flow rate of 5.0 mL/min was utilized according to the program 0–6.0 min: (A/B) 40:60 → 90:10 v/v; 6.0–10.0 min: (A/B) 90:10 (v/v). The radioactive peak corresponding to the parent radioligand was then integrated from the data output of the HPLC column. The area of this peak was calculated relative to the total area detected for all radioactive compounds. To evaluate the radioactivity recovery from the system, the measurement was taken from a 2 mL aliquot of the eluate taken from the HPLC column and measured against the total injected radioactivity.
# LRRK2 [3] = assay: In vitro autoradiography, NHP brain slices; assay type: binding; details: baseline
# Method: Whole brain hemispheres were sectioned into horizontal slices with a thickness of 100 µm using a Leica cryomacrocut system. The autoradiographic procedures followed the same protocols established in previous studies conducted in our laboratory. The whole-hemisphere sections of 100 micron thickness were incubated for 90 min at room temperature with their corresponding radiotracer (4 MBq/200 mL) in TRIS buffer (pH 7.4) containing sodium chloride (120 mM), potassium chloride (5 mM), calcium chloride (2 mM), and albumin (0.1% w/v). After incubation, sections were washed three times in the same buffer at room temperature for five minutes each, briefly dipped in ice-cold distilled water, dried, and then placed in the phosphor imaging plates. Binding density standards were prepared by serial dilution of the radioligand stock solution in the assay buffer. Readings were taken with the Fujifilm BAS-5000 (Fujifilm, Tokyo, Japan), while quantitative analysis was conducted with the Multi Gauge 3.2 image analysis software (Fujifilm, Tokyo, Japan). For blocking experiments, adjacent brain sections were co-incubated with LuAF66583 (0.1 µM or 10 µM). […] The thickness differed from human tissue (20 µm).
# [4] = Stability of formulated radioligand in PBS (analytical HPLC); assay type: physicochemical; details: pH 7.4, for 120 min
# Method: The radiochemical purity and stability of all three radioligands ([^11C]3, [^18F]1 and [^18F]2) were determined using analytical HPLC coupled with an XBridge analytical column (C18 5 µm, 4.6 × 150 mm particle size), a Merck-Hitachi L-7100 pump, an L-7400 UV detector, and a GM tube for radioactivity detection (VWR International). A mixture of acetonitrile (25%) and HCO2NH4 (0.1 M aq. solution) (75%) with a flow rate of 2 mL/min was used as HPLC isocratic mobile phase. The HPLC liquid flow was monitored using a UV absorbance detector (λ = 254 nm) in conjunction with a radioactive detector (BETA-flow, Beckman, Fullerton, CA, USA). All three radioligands were eluted with a retention time (tR) of 4.0–4.5 min, and the total run time of the HPLC program was 9 min. The identity of the radiolabeled compound was confirmed by co-injecting the corresponding authentic reference standard.
# LRRK2 [5] = biological target: T1, LRRK2 (Homo sapiens, UniProt Q5S007); assay: In vitro autoradiography, human whole-hemisphere brain slices; assay type: binding; details: human brain slices, baseline
# T1 construct: Human brains without pathological findings were acquired from the National Institute of Forensic Medicine; from tissue; host or cells: human post-mortem control brain, whole-hemisphere sections (100 µm)
# Method: Human brains without pathological findings were acquired from the National Institute of Forensic Medicine at Karolinska Institutet in Stockholm, Sweden. These brains were obtained during forensic autopsies (designated as control brain) and were processed in a manner like previously described methods. […] The brain was removed, and its tissues were kept in −85 °C until the sectioning process. The whole brain hemispheric slices were subsequently maintained at −25 °C until the commencement of autoradiography procedures. […] The sectioning of the brain and the autoradiography experiments were performed at the Psychiatry section, Department of Neuroscience, Karolinska Institutet, Sweden.
# Whole brain hemispheres were sectioned into horizontal slices with a thickness of 100 µm using a Leica cryomacrocut system. The autoradiographic procedures followed the same protocols established in previous studies conducted in our laboratory. The whole-hemisphere sections of 100 micron thickness were incubated for 90 min at room temperature with their corresponding radiotracer (4 MBq/200 mL) in TRIS buffer (pH 7.4) containing sodium chloride (120 mM), potassium chloride (5 mM), calcium chloride (2 mM), and albumin (0.1% w/v). After incubation, sections were washed three times in the same buffer at room temperature for five minutes each, briefly dipped in ice-cold distilled water, dried, and then placed in the phosphor imaging plates. Binding density standards were prepared by serial dilution of the radioligand stock solution in the assay buffer. Readings were taken with the Fujifilm BAS-5000 (Fujifilm, Tokyo, Japan), while quantitative analysis was conducted with the Multi Gauge 3.2 image analysis software (Fujifilm, Tokyo, Japan). For blocking experiments, adjacent brain sections were co-incubated with LuAF66583 (0.1 µM or 10 µM).
# [6] = read-out: Free fraction in plasma (fP)
# [7] = read-out: Plasma protein binding (converted)
# T1 sequence (Q5S007 whole entry): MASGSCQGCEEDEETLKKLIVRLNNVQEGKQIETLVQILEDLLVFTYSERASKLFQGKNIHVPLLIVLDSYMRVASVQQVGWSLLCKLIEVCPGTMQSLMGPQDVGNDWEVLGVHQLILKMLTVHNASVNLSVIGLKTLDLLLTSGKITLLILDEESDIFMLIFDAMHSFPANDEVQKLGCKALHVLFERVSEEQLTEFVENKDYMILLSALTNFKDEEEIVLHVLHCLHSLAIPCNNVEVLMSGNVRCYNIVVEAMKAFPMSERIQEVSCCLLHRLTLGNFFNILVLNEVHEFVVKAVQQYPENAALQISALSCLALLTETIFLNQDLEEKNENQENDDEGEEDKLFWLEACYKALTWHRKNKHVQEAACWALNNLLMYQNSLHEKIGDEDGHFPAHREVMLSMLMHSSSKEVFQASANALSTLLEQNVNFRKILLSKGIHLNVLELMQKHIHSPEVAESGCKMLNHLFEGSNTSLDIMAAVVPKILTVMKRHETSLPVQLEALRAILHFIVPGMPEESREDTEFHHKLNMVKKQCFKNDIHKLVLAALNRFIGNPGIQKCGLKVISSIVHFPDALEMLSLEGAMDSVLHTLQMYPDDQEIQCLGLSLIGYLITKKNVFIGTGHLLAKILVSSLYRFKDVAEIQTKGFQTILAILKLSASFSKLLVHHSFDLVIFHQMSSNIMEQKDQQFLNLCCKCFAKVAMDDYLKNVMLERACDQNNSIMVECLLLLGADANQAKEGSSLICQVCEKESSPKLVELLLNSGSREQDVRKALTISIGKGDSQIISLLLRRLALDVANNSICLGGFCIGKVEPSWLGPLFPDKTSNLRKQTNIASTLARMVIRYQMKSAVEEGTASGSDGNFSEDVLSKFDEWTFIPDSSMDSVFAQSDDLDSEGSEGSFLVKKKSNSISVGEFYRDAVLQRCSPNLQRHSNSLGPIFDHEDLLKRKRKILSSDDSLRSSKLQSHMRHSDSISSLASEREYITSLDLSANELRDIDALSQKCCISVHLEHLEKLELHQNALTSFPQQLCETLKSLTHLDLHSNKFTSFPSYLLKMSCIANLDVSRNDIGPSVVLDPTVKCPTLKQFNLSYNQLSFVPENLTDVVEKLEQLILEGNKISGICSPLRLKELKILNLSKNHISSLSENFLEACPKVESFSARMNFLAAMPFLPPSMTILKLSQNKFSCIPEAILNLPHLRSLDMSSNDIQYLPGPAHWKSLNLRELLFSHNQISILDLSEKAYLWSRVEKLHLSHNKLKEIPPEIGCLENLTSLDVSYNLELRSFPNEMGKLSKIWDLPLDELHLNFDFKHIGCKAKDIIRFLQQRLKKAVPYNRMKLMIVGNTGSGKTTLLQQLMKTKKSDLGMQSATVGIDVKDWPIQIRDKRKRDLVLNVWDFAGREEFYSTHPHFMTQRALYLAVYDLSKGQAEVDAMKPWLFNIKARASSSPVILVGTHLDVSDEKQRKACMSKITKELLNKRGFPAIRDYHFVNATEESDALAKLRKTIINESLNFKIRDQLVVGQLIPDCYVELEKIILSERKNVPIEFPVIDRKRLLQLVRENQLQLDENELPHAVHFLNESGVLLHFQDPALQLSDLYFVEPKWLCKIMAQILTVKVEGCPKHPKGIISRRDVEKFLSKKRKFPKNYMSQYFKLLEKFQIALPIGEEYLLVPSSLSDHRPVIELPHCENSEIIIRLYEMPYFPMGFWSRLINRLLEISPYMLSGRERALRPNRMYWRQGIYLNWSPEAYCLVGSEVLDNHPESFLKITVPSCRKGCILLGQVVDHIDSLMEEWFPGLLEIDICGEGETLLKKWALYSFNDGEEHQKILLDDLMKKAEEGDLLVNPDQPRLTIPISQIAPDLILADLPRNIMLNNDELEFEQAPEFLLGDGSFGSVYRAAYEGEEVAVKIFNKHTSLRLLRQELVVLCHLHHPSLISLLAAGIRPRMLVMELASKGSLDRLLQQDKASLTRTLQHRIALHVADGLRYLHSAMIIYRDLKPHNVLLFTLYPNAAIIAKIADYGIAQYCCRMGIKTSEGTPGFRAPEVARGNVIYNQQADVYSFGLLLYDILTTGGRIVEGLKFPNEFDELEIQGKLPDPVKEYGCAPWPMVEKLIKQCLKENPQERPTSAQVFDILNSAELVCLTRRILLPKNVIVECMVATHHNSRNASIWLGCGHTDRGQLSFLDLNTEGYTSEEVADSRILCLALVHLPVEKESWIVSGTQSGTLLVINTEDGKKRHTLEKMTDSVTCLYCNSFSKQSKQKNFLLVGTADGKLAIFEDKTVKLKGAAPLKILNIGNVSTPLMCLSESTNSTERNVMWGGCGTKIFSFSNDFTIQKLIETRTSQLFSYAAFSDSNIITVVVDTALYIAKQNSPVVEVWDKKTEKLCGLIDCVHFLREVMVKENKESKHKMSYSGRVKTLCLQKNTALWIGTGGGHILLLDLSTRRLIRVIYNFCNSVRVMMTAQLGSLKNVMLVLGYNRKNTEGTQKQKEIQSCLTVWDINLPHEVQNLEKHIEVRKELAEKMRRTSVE
SMILES,"fraction unbound at 10 min [1, 6]","fraction unbound at 10 min [1, 7]","Parent compound, share of eluted plasma radioactivity ([2]; at 5 min)","Parent compound, share of eluted plasma radioactivity ([2]; at 90 min)",Binding of radioligand in brain slices (ARG) (LRRK2 [3]),Stability in PBS buffer [4],Binding of radioligand in brain slices (ARG) (LRRK2 [5])
"C[C@@H]1C[C@@H]([18F])CN1c1c(C#N)c2c(N)ncnc2n1C [[^18F]2, 4-Amino-6-((2R,4R)-4-[^18F]fluoro-2-methyl Pyrrolidin-1-yl)-7-methyl-7H-pyrrolo[2,3-d]pyrimidine-5-carbonitrile]",~0.6,~0.6,over 90%,around 10%,displayed binding,demonstrated stability,displayed binding
"C[C@@H]1C[C@@H]([18F])CN1c1c(C#N)c2c(N)nccc2n1C [[^18F]1, 4-Amino-2-((2R,4R)-4-[^18F]fluoro-2-methylpyrrolidin-1-yl)-1-methyl-1H-pyrrolo[3,2-c]pyridine-3-carbonitrile]",~0.45,~0.45,over 90%,around 10%,clear binding,demonstrated stability,clear binding
